How the values were obtained:
Experiment in all cases: relative viability (nuclei count vs DMSO), 5 days (fraction); higher = more cells survive
[1] = compound: C#Cc1cccc(Nc2ncnc3cc(OCCOC)c(OCCOC)cc23)c1 [Erlotinib] + CS(=O)(=O)CCNCc1ccc(-c2ccc3ncnc(Nc4ccc(OCc5cccc(F)c5)c(Cl)c4)c3c2)o1 [Lapatinib] (partner 2 µM)
Outline: (§1)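 Lung cancer cell lines were pin-tool dosed in 1536-well plates on the day after seeding, with either a lone drug or a fixed anchor-drug dose plus five library-drug doses (not always all listed) in √10 steps. Nuclei were counted on 4× images after 5 days. Relative viability is the ratio of treated-well to vehicle-well nuclei counts, with each value a median of duplicate plates.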

[2] = compound: C#Cc1cccc(Nc2ncnc3cc(OCCOC)c(OCCOC)cc23)c1 [Erlotinib] + C[C@@H](Oc1cc(-c2cnn(C3CCNCC3)c2)cnc1N)c1c(Cl)ccc(F)c1Cl [Crizotinib] (partner 1 µM)
Outline: as §1

[3] = compound: O=C(Nc1c[nH]nc1-c1nc2ccc(CN3CCOCC3)cc2[nH]1)NC1CC1 [AT9283] + CC(=O)Nc1cccc(-n2c(=O)n(C3CC3)c(=O)c3c(Nc4ccc(I)cc4F)n(C)c(=O)c(C)c32)c1 [Trametinib] (partner 0.02 µM)
Outline: as §1

[4] = compound: O=C(Nc1c[nH]nc1-c1nc2ccc(CN3CCOCC3)cc2[nH]1)NC1CC1 [AT9283] + CS(=O)(=O)N1CCN(Cc2cc3nc(-c4cccc5[nH]ncc45)nc(N4CCOCC4)c3s2)CC1 [Pictilisib] (partner 1 µM)
Outline: as §1

[5] = compound: C#Cc1cccc(Nc2ncnc3cc(OCCOC)c(OCCOC)cc23)c1 [Erlotinib] + N=C(N)NC(=N)NCCc1ccccc1 [Phenformin] (partner 250 µM)
Outline: as §1

Cell Line | relative viability ([1]; first compound 0.02 µM) | relative viability ([1]; first compound 0.2 µM) | relative viability ([1]; first compound 0.6325 µM) | relative viability ([1]; first compound 2 µM) | relative viability ([2]; first compound 0.02 µM) | relative viability ([2]; first compound 0.2 µM) | relative viability ([2]; first compound 0.6325 µM) | relative viability ([2]; first compound 2 µM) | relative viability ([3]; first compound 0.003 µM) | relative viability ([3]; first compound 0.03 µM) | relative viability ([3]; first compound 0.09487 µM) | relative viability ([3]; first compound 0.3 µM) | relative viability ([4]; first compound 0.003 µM) | relative viability ([4]; first compound 0.03 µM) | relative viability ([4]; first compound 0.09487 µM) | relative viability ([4]; first compound 0.3 µM) | relative viability ([5]; first compound 0.02 µM) | relative viability ([5]; first compound 0.2 µM) | relative viability ([5]; first compound 0.6325 µM) | relative viability ([5]; first compound 2 µM)
NCI-H2087 | 0.996 | 1.15 | 1.16 | 0.921 | 0.882 | 1.06 | 0.871 | 0.849 | 0.176 | 0.096 | 0.124 | 0.107 | 0.677 | 0.413 | 0.21 | 0.208 | 0.516 | 0.483 | 0.506 | 0.304
NCI-H2126 | 0.771 | 0.763 | 0.788 | 0.727 | 1.04 | 0.892 | 0.776 | 0.662 | 0.573 | 0.566 | 0.38 | 0.293 | 0.48 | 0.493 | 0.375 | 0.26 | 0.534 | 0.464 | 0.489 | 0.41
NCI-H2170 | 0.283 | 0.264 | 0.293 | 0.24 | 1.17 | 1.06 | 1.1 | 0.569 | 0.958 | 0.747 | 0.268 | 0.159 | 0.309 | 0.234 | 0.176 | 0.151 | 0.422 | 0.463 | 0.386 | 0.324
NCI-H2228 | 0.946 | 1.31 | 1.31 | 0.891 | 0.516 | 0.476 | 0.379 | 0.32 | 0.422 | 0.518 | 0.239 | 0.207 | 0.355 | 0.259 | 0.141 | 0.0664 | 0.414 | 0.338 | 0.357 | 0.257
NCI-H2347 | 1.04 | 1.08 | 0.806 | 0.882 | 0.678 | 0.595 | 0.723 | 0.646 | 0.292 | 0.269 | 0.275 | 0.262 | 0.726 | 1.23 | 0.568 | 0.385 | 0.511 | – | 0.326 | 0.326
NCI-H2405 | 1.1 | 1.11 | 1.14 | 0.976 | 0.957 | 0.838 | 0.958 | 0.717 | 0.737 | 0.491 | 0.296 | 0.185 | 0.463 | 0.384 | 0.254 | 0.145 | 0.449 | 0.347 | 0.401 | 0.404
NCI-H3122 | 1.08 | 1.03 | 0.982 | 1.01 | 0.287 | 0.262 | 0.258 | 0.241 | 0.277 | 0.247 | 0.168 | 0.097 | 0.602 | 0.41 | 0.271 | 0.217 | 0.361 | 0.388 | 0.392 | 0.377
PC-3 [JPC-3] | 0.437 | 0.383 | 0.442 | 0.399 | 0.887 | 0.409 | 0.324 | 0.377 | 0.718 | 0.672 | 0.71 | 0.481 | 0.673 | 0.631 | 0.542 | 0.376 | 0.445 | 0.367 | 0.268 | 0.291
PC-14 | 0.276 | 0.289 | 0.307 | 0.279 | 0.651 | 0.278 | 0.23 | 0.224 | 0.827 | 0.459 | 0.131 | 0.0923 | 0.534 | 0.657 | 0.0566 | 0.0616 | 0.278 | 0.171 | 0.177 | 0.139
RERF-LC-KJ | 0.857 | 0.864 | 0.936 | 0.734 | 0.85 | 0.837 | 0.781 | 0.645 | 0.877 | 0.691 | 0.412 | 0.251 | 0.627 | 0.24 | 0.171 | 0.164 | 0.393 | 0.372 | 0.311 | 0.337
SK-LU-1 | 0.974 | 0.933 | 0.995 | 0.869 | 1.26 | 0.914 | 0.834 | 0.727 | 0.508 | 0.424 | 0.288 | 0.279 | 0.603 | 0.348 | 0.217 | 0.197 | 0.621 | 0.536 | 0.573 | 0.479
SK-MES-1 | 0.511 | 0.452 | 0.476 | 0.434 | 1.06 | 0.725 | 0.524 | 0.38 | 0.643 | 0.594 | 0.541 | 0.276 | 0.345 | 0.314 | 0.158 | 0.147 | 0.705 | 0.599 | 0.385 | 0.368
SW 1573 | 1.3 | 1.05 | – | 1.17 | 0.88 | 0.814 | 0.864 | 0.646 | 0.597 | 0.174 | 0.17 | 0.143 | 0.453 | 0.251 | 0.2 | 0.127 | 0.377 | 0.412 | 0.312 | 0.372
UMC-11 | 1.04 | 0.952 | 1.11 | 0.919 | 0.644 | 0.62 | 0.84 | 0.585 | 0.679 | 0.134 | 0.126 | 0.164 | 0.805 | 0.114 | 0.111 | 0.191 | 0.334 | 0.281 | 0.301 | 0.287
